Values after ≈ are worked out from the molar mass of the structure shown. Counter-ions that a name gives are not always drawn.
Test system: Pseudomonas aeruginosa AJ 2116
Experiment: MIC using Pseudomonas aeruginosa AJ 2116 as the test organism
Format: cell-based
Details: AJ2116, read-out: MIC (Minimum Inhibitory concentration)
Text: Comparative MIC's for compounds using Pseudomonas aeruginosa AJ 2116 as the test organism are as follows: "MIC" represents the Minimum INhibitory concentration in mcg./ml of the compound required to inhibit the growth of the test organism described.

Compared with `CC1(C)S[C@@H]2[C@H](NC(=O)C(C(=O)O)c3ccccc3)C(=O)N2[C@H]1C(=O)O` (some centres unmarked) [Carbenicillin, reference compound], `CC1(C)S[C@@H]2[C@H](NC(=O)[C@H](N)c3ccccc3)C(=O)N2[C@H]1C(=O)O` [ampicillin, reference compound] is higher in MIC: 100 µg/mL (≈ 264 µM) for the first, > 500 µg/mL for the second.

First: CC1(C)S[C@@H]2[C@H](NC(=O)[C@H](NC(=O)c3nc[nH]c3C(=O)O)c3ccccc3)C(=O)N2[C@H]1C(=O)O [I, D-α-(4-carboxyimidazole-5-carboxyamido)benzylpenicillin disodium salt monohydrate]
Second: CC1(C)S[C@@H]2[C@H](NC(=O)[C@H](NC(=O)c3nc(O)[nH]c3C(=O)O)c3ccccc3)C(=O)N2[C@H]1C(=O)O [III, D-α-(2-hydroxy-4-carboxyimidazole-5-carboxamido)benzylpenicillin]
The MIC of the first is 2-fold lower: 12.5 µg/mL for the first, 25 µg/mL (≈ 49.7 µM) for the second.

`NC(=O)c1cc[n+](CC2=C(C(=O)[O-])N3C(=O)[C@@H](NC(=O)[C@H](NC(=O)c4nc[nH]c4C(=O)O)c4ccccc4)[C@H]3SC2)cc1` [II, 7-β-[D-(-)-α-(4-carboxyimidazole-5-carbox-amido)-phenylacetoamido]-3-(4-carbamoylpyridinium)methyl-3-cephem-4-carboxylic acid.mixture of K and Na salt.trihydrate] and `O=C([O-])C1=C(C[n+]2ccc(CCS(=O)(=O)O)cc2)CS[C@@H]2[C@H](NC(=O)[C@H](NC(=O)c3nc[nH]c3C(=O)O)c3ccccc3)C(=O)N12` [IX, 7-β-[D-(-)-α-(4-carboxyimidazole-5-carboxamido)phenylacetamido]-3-(4-β-sulphoethylpyridinium)-methyl-3-cephem-4-carboxylic acid] are the same in MIC: 12.5 µg/mL for the first, 12.5 µg/mL (≈ 18.6 µM) for the second.

`CC1(C)S[C@@H]2[C@H](NC(=O)[C@H](NC(=O)c3nc(S)[nH]c3C(=O)O)c3ccccc3)C(=O)N2[C@H]1C(=O)O` [IV, D-α-(2-mercapto-4-carboxyimidazole-5-carboxamido)benzylpenicillin] and `CC1(C)S[C@@H]2[C@H](NC(=O)[C@H](NC(=O)c3nc(N)[nH]c3C(=O)O)c3ccccc3)C(=O)N2[C@H]1C(=O)O` [VII, D-α-(2-amino-4-carboxyimidazole-5-carboxamido)benzylpenicillin] are the same in MIC: 50 µg/mL (≈ 96.2 µM) for the first, 50 µg/mL (≈ 99.5 µM) for the second.

`Cc1nc(C(=O)N[C@@H](C(=O)N[C@@H]2C(=O)N3[C@@H]2SC(C)(C)[C@@H]3C(=O)O)c2ccccc2)c(C(=O)O)[nH]1` [V, D-α-(2-methyl-4-carboxyimidazole-5-carboxamido) benzylpenicillin] and `CC1(C)S[C@@H]2[C@H](NC(=O)[C@H](NC(=O)c3nc(Cl)[nH]c3C(=O)O)c3ccccc3)C(=O)N2[C@H]1C(=O)O` [VI, D-α-(2-chloro-4-carboxyimidazole-5-carboxamido)benzylpenicillin] are the same in MIC: 50 µg/mL (≈ 99.7 µM) for the first, 50 µg/mL (≈ 95.8 µM) for the second.

With `Cn1nnnc1SCC1=C(C(=O)O)N2C(=O)[C@@H](NC(=O)[C@H](NC(=O)c3nc[nH]c3C(=O)O)c3ccccc3)[C@H]2SC1` [VIII, 7-β-[-(-)-α-(4-carboxyimidazole-5-carboxamido)phenylacetamido]-3-[[(1-methyl-1H-tetrazol-5-yl)thio]methyl]-3-cephem-4-carboxylic acid] the MIC was 50 µg/mL (≈ 83.4 µM).
